# According to publication PMC10974743, “Design, Synthesis, and Biological Evaluation of Novel Phenoxy Acetic Acid Derivatives as Selective COX-2 Inhibitors Coupled with Comprehensive Bio-Pharmacological Inquiry, Histopathological Profiling, and Toxicological Scrutiny” (Molecules, 2024):
# Entries after “also recorded” stand apart in the source; their conditions may differ. Marks after values point to notes of the source that are not given here.
# Assays:
# TNF-α = TNF-α content of paw exudate by ELISA, carrageenan paw edema model; assay type: in vivo, Sprague Dawley rats; details: vs carrageenan group
# Procedure: (§1) ELISA assessment assays were conducted as cited (Supplementary Materials, page 53).
# (§2) In-vivo anti-inflammatory activity […]
# (§3) cervical dislocation. […] The percentage
# (§4) Weight of the left paw] ×100.
# (§5) Assessment of inflammatory biomarkers using ELISA […]
# (§6) content, using enzyme -linked immunosorbent assay (ELISA). The ELISA kits were purchased from CLOUD -CLONE CORP (CCC, USA) (Cat# SEA133Ra) and MyBioSource company (British Columbia, Canada) (Cat# MBS730592) respectively, and the assays were performed following the manufacturer' s instructions. Additionally, the protein content of the exudates was determined using the Bradford method.
# PGE2 = PGE2 content of paw exudate by ELISA, carrageenan paw edema model; assay type: in vivo, Sprague Dawley rats; details: vs carrageenan group
# Procedure: as §1, §2, §3, §4, §5, §6
# [1] = test system: nociceptive responses on hot plate; test: Hot plate latency test (analgesic activity); assay type: in vivo, rats; details: for Hot plate latency period: plate 50 °C, mean ± SD, n = 6
# Procedure: The hot plate latency test was performed according to the following procedures (Supplementary Materials, page 54). […]
# In summary, thirty rats
# The normal control group received 1% CMC, while the remaining groups were administered their respective reference or test compounds. Each rat was gently positioned on a heated plate set at 50 ◦C. The latency period for nociceptive responses, such as paw licking or jumping off the hot plate, was recorded at 30-, 60-, 90-, and 120 minutes post-administration of the reference drugs, test […]
# [2] = test system: paw tissue, carrageenan paw edema model; test: Histopathological examination of paws, inflammatory cell infiltration score; assay type: in vivo, rats; details: H&E staining, carrageenan paw edema
# Procedure: The histopathological assessments were performed according to the following procedures (Supplementary Materials, page 54). […]
# Histopathological examination
# Thirty-six rats were separated into six groups of six rats each for histological assessment […]
# groupings consisted of a control group, a carrageenan group, two groups for the reference drugs […]
# protocols that were utilized in the in-vivo anti-inflammatory activity test were used. After a duration of 5 hours, the animals were euthanized, and their left paws were amputated. The paws were preserved in 10% neutral buffered formalin, trimmed, washed, dehydrated in increasing concentrations of ethyl alcohol, clarified in xylene, and ultimately embedded in paraffin. They were then sliced into 4-6µ thick slices, stained with Hematoxylin and Eosin, and examined under a light microscope. A scoring system was used to evaluate the degree of inflammation, dividing it into six categories ranging from 0 indicating no inflammation to 5 indicating severe inflammation.
# Each score corresponded to a certain level of inflammation: 0 for no inflammation, 1 for mild inflammation, 2 for mild to moderate inflammation, 3 for moderate inflammation, 4 for moderate to severe inflammation, and 5 for severe inflammation.
# [3] = Assessment of liver and kidney function (serum ALT, AST, creatinine, urea); assay type: in vivo, rats; design: Urea: unit not given here; details: mean ± SD
# Procedure: These assessments were conducted following the manufacturer’s instructions (Supplementary Materials, page 55).
# In-vivo anti-inflammatory activity
# as §3, §4
# Assessment of inflammatory biomarkers using ELISA
# [4] = test system: carrageenan-induced paw edema; test: Carrageenan paw edema test (paw thickness, paw weight); details: for Paw thickness difference: oral; for Percentage of inhibition of paw thickness: vs carrageenan group
# Procedure: The carrageenan paw edema test was conducted following established procedures as detailed (Supplementary Materials, page 53).
# The carrageenan paw edema test was conducted following established procedures. In summary, seventy-two rats were randomly assigned to twelve groups, each comprising six rats.
# These groups included normal controls, carrageenan controls (both receiving the vehicle; 1%
# Acute inflammation was induced in the right hind paws of all rats one hour after oral administration of the respective compounds or vehicle. This was achieved by injecting a freshly prepared 0.1 mL carrageenan suspension (1% in normal saline) subplantarly into the right hind paw, except for the normal control group, which received a saline injection. Paw thickness was measured hourly (Ct) until the fifth hour (C5) post-carrageenan injection (C0). The hourly increase in paw thickness (paw thickness difference) was calculated by subtracting the initial measurement (C0) from the thickness at each hour (Ct), and the results were presented as the mean increase in paw thickness (mm). To evaluate anti-inflammatory effects, the percentage of inhibition for each standard and test compound was determined using the formula: percentage of inhibition (%) = [(Paw thickness difference of carrageenan group - Paw thickness difference of treated)/ Paw thickness difference of carrageenan group] × 100. […] The paws were then excised and weighed (both left and right). The percentage of weight increase between the left and right paws of each animal was calculated using the equation: Percentage of weight increase = [(Weight of the right paw - Weight of the left paw) / Weight of the left paw] ×100.
# gastric mucosa = test: Evaluation of ulcerogenic effects (macroscopic scores and gastric histopathology)
# Procedure: The assessment of ulcerogenic effects was conducted following established procedures [42, 57]
# Following the experimental period, the animals were euthanized using pentobarbital sodium (100 mg/kg), and blood was collected via jugular vein exsanguination for later evaluation of liver and kidney function, and subsequently sacrificed by cervical dislocation. […] Following this, the animals' stomachs were removed, inflated, and opened along the greater curvature to evaluate ulcerogenic effects.
# B: Ulcer lesion severity scoring system
# 2.5 More than 10 small ulcers
# 3 1 marked ulcer plus 0 to 4 small ulcers
# 3.5 1 marked ulcer plus 5 or more small ulcers
# 4 2 marked ulcers plus 0 to 4 small ulcers
# 4.5 2 marked ulcers plus 5 or more small ulcers
# 5 3 or more marked ulcers
# The statistical analysis of the data was conducted using GraphPad Prism 9.5.1 Demo
# (GraphPad Software, San Diego, CA). One -way analysis of variance (ANOVA) was utilized to
# evaluate differences among the various groups, except for paw edema volume, which un derwent
# analysis using two -way ANOVA. Post -hoc analysis was performed using Tukey's multiple
# significance set at P < 0.05
structure (smiles),measurement,setting,value
"Cc1ccc(-c2cc(C(F)(F)F)nn2-c2ccc(S(N)(=O)=O)cc2)cc1 [Celecoxib, celecoxib, reference compound]",Reduction of TNF-α exudate content,TNF-α,63.52%
same,Reduction of PGE2 exudate content,PGE2,60.16%
same,Hot plate latency period,[1]; 30 min post-administration,8.39 ± 0.22 ^a
same,Hot plate latency period,[1]; 60 min post-administration,9.95 ± 0.23 ^a
same,Hot plate latency period,[1]; 90 min post-administration,11.63 ± 0.60 ^a
same,Increase in latency period,[1]; 120 min mark,46.70%
same,Hot plate latency period,[1]; 120 min post-administration,13.88 ± 0.41 ^a
same,Paw histopathological finding,[2],dermal infiltration by high number of inflammatory cells mainly neutrophils and lymphocytes; also recorded: significant dermal infiltration by a large quantity of inflammatory cells
same,ALT,[3]; n = 6,92.94 ± 5.00 IU/L
same,AST,[3]; n = 6,101.23 ± 10.04 IU/L
same,Urea,[3]; n = 6,26.28 ± 3.11
same,Creatinine,"[3]; n = 6, in mg/dL (unit assumed)",0.73 ± 0.03
same,Paw thickness difference,"[4]; 1st h after carrageenan, mean ± SD, n = 6",1.4 ± 0.38 mm
same,Percentage of inhibition of paw thickness,[4]; 1st h,29.31%
same,Paw thickness difference,"[4]; 2nd h after carrageenan, mean ± SD, n = 6",2.36 ± 0.51 mm
same,Percentage of inhibition of paw thickness,[4]; 2nd h,28.34%
same,Paw thickness difference,"[4]; 3rd h after carrageenan, mean ± SD, n = 6",2.83 ± 0.43 mm
same,Percentage of inhibition of paw thickness,[4]; 3rd h,33%
same,Paw thickness difference,"[4]; 4th h after carrageenan, mean ± SD, n = 6",3.01 ± 0.57 mm
same,Percentage of inhibition of paw thickness,[4]; 4th h,40.39%
same,Paw thickness difference,"[4]; 5th h after carrageenan, mean ± SD, n = 6",3.10 ± 0.23 mm
same,Percentage of inhibition of paw thickness,[4]; 5th h,41.65%
same,Paw Weight Increase,"[4]; right vs left paw, after 5 h, mean ± SD, n = 6",29.95 ± 2.20 ^ab %
same,Gastric mucosa histopathological finding,gastric mucosa; H&E staining,ulcer formation with eroded gastric mucosa; also recorded: developed ulcers with degraded gastric mucosa
same,Ulcer Number Score,"gastric mucosa; mean ± SD, n = 6",1.00 ± 0.63
same,Ulcer Severity Score,"gastric mucosa; mean ± SD, n = 6, scale 0 to 5",0.75 ± 0.52
